Where two headings read alike, the source gives them in different places.
How the values were obtained:
[1] = test system: maximal electroshock-induced seizures; assay: Maximal electroshock-induced seizure (MES) test in mice; assay type: in vivo, mouse; conditions: for p/t, number of animals protected against MES-induced seizures / number tested / responders at 300 mg/kg / acute adverse effects at the screening dose: 300 mg/kg i.p.; for responders at 300 mg/kg / ED50: Mus musculus, ip; for responders at 300 mg/kg: read-out: percent of animals protected against MES-induced seizures; for PI (TD50/ED50): protective index; for onset of action: significant protection as early as 15 min after parenteral administration; for acute adverse effects at the screening dose: protective effect in MES could not be established; for anticonvulsant activity (in words): MES test; for time to peak of the anticonvulsant action: after i.p. administration
Description: Additionally, all efforts were made to minimize animal suffering and to use only the number of animals necessary to produce reliable scientific data.
In the initial stage of the study, groups of eight mice were supplied with the compounds (administered intraperitoneally) in a dose of 300 mg/kg and then exposed to electrical impulse at fixed intervals (15, 30, 60, 120 min).
Each mouse was used only once.
Fresh drug solutions were prepared on each day of experimentation and administered at 15, 30, 60 and 120 min. before the initiation of maximal electroconvulsions. Electroconvulsions were produced by a current (0.2 s stimulus duration; 500 V, 50 Hz, fixed current intensity of 25 mA) delivered via ear-clip electrodes by a Rodent Shocker generator (constant-current stimulator Type 221, Hugo Sachs Elektronik, Freiburg, Germany). The criterion for the occurrence of seizure activity was the tonic hind limb extension. The animals were administered with a constant dose of 300 mg/kg of each of the examined compounds and were subjected to MES-induced seizures. […] The animals were administered with different doses of the tested compounds so as to obtain a variable percentage of protection against maximal electroconvulsions, allowing the construction of dose-response relationship lines for each examined compound administered i.p. at various pretreatment times, according to Litchfield and Wilcoxon. Each ED50 value represents the dose of the studied compounds that is required to protect 50% of the animals tested against MES-induced seizures.

[2] = pretreatment time 120 min, mice
[3] = 0.25 h, pretreatment time 15 min, mice
[4] = 0.5 h, pretreatment time 30 min, mice
[5] = 1 h, pretreatment time 60 min, mice
[6] = 2 h, pretreatment time 120 min, mice
[7] = pretreatment time 15 min, mice, read-out: ED50 ± S.E. (MES test)
[8] = pretreatment time 30 min, mice, read-out: ED50 ± S.E. (MES test)
[9] = pretreatment time 60 min, mice, read-out: ED50 ± S.E. (MES test)
[10] = pretreatment time 120 min, mice, read-out: ED50 ± S.E. (MES test)
[11] = chimney TD50 / MES ED50, pretreatment time 15 min
[12] = chimney TD50 / MES ED50, pretreatment time 30 min
[13] = chimney TD50 / MES ED50, pretreatment time 60 min
[14] = chimney TD50 / MES ED50, pretreatment time 120 min

S=c1n(CN2CCOCC2)nc(-c2ccc(Cl)cc2)n1-c1ccc(Br)cc1 [Compound 28a, 4-(4-Bromophenyl)-5-(4-chlorophenyl)-2-(morpholin-4-ylmethyl)-2,4-dihydro-3H-1,2,4-triazole-3-thione]
p/t, number of animals protected against MES-induced seizures / number tested ([1]; pretreatment time 15 min, mice): 0/8 | p/t, number of animals protected against MES-induced seizures / number tested ([1]; pretreatment time 30 min, mice): 0/8 | p/t, number of animals protected against MES-induced seizures / number tested ([1]; pretreatment time 60 min, mice): 0/8 | p/t, number of animals protected against MES-induced seizures / number tested [1, 2]: 0/8 | responders at 300 mg/kg [1, 3]: 0% | responders at 300 mg/kg [1, 4]: 0% | responders at 300 mg/kg [1, 5]: 0% | responders at 300 mg/kg [1, 6]: 0%

S=c1n(CN2CCOCC2)nc(-c2ccc(Cl)cc2)n1-c1ccccc1Br [Compound 25a, 4-(2-Bromophenyl)-5-(4-chlorophenyl)-2-(morpholin-4-ylmethyl)-2,4-dihydro-3H-1,2,4-triazole-3-thione]
melting point: 180 to 181 °C | p/t, number of animals protected against MES-induced seizures / number tested ([1]; pretreatment time 15 min, mice): 0/8 | p/t, number of animals protected against MES-induced seizures / number tested ([1]; pretreatment time 30 min, mice): 0/8 | p/t, number of animals protected against MES-induced seizures / number tested ([1]; pretreatment time 60 min, mice): 0/8 | p/t, number of animals protected against MES-induced seizures / number tested [1, 2]: 0/8 | responders at 300 mg/kg [1, 3]: 0% | responders at 300 mg/kg [1, 4]: 0% | responders at 300 mg/kg [1, 5]: 0% | responders at 300 mg/kg [1, 6]: 0%

Fc1ccc(N2CCN(Cn3nc(-c4cccc(Cl)c4)n(-c4ccc(Br)cc4)c3=S)CC2)cc1 [Compound 21a, 4-(4-Bromophenyl)-5-(3-chlorophenyl)-2-{[4-(4-fluorophenyl)piperazin-1-yl]methyl}-2,4-dihydro-3H-1,2,4-triazole-3-thione]
p/t, number of animals protected against MES-induced seizures / number tested ([1]; pretreatment time 15 min, mice): 0/8 | p/t, number of animals protected against MES-induced seizures / number tested ([1]; pretreatment time 30 min, mice): 0/8 | p/t, number of animals protected against MES-induced seizures / number tested ([1]; pretreatment time 60 min, mice): 0/8 | p/t, number of animals protected against MES-induced seizures / number tested [1, 2]: 0/8 | responders at 300 mg/kg [1, 3]: 0% | responders at 300 mg/kg [1, 4]: 0% | responders at 300 mg/kg [1, 5]: 0% | responders at 300 mg/kg [1, 6]: 0%

S=c1[nH]nc(-c2cccc(Cl)c2)n1-c1ccc(Cl)cc1 [Compound 4a, 4-(4-Chlorophenyl)-5-(3-chlorophenyl)-2,4-dihydro-3H-1,2,4-triazole-3-thione]
p/t, number of animals protected against MES-induced seizures / number tested ([1]; pretreatment time 15 min, mice): 8/8 | p/t, number of animals protected against MES-induced seizures / number tested ([1]; pretreatment time 30 min, mice): 8/8 | p/t, number of animals protected against MES-induced seizures / number tested ([1]; pretreatment time 60 min, mice): 7/8 | p/t, number of animals protected against MES-induced seizures / number tested [1, 2]: 7/8 | responders at 300 mg/kg [1, 3]: 100% | responders at 300 mg/kg [1, 4]: 100% | responders at 300 mg/kg [1, 5]: 87.5% | responders at 300 mg/kg [1, 6]: 87.5% | ED50 [1, 7]: 90.1 ± 15.7 mg/kg | ED50 [1, 8]: 135 ± 19.8 mg/kg | ED50 [1, 9]: 171 ± 21.4 mg/kg | ED50 [1, 10]: 184 ± 28 mg/kg | PI (TD50/ED50) [1, 11]: 3.9 | PI (TD50/ED50) [1, 12]: 2.7 | PI (TD50/ED50) [1, 13]: 2.1 | PI (TD50/ED50) [1, 14]: 2.0 | onset of action ([1]; MES, mice): quick onset of action

S=c1n(CN2CCN(c3ccccc3)CC2)nc(-c2cccc(Cl)c2)n1-c1ccc(Br)cc1 [Compound 20a, 4-(4-Bromophenyl)-5-(3-chlorophenyl)-2-[(4-phenylpiperazin-1-yl)methyl]-2,4-dihydro-3H-1,2,4-triazole-3-thione]
p/t, number of animals protected against MES-induced seizures / number tested ([1]; pretreatment time 15 min, mice): 0/8 | p/t, number of animals protected against MES-induced seizures / number tested ([1]; pretreatment time 30 min, mice): 0/8 | p/t, number of animals protected against MES-induced seizures / number tested ([1]; pretreatment time 60 min, mice): 0/8 | p/t, number of animals protected against MES-induced seizures / number tested [1, 2]: 0/8 | responders at 300 mg/kg [1, 3]: 0% | responders at 300 mg/kg [1, 4]: 0% | responders at 300 mg/kg [1, 5]: 0% | responders at 300 mg/kg [1, 6]: 0%

Fc1ccc(-n2c(-c3cccc(Cl)c3)n[nH]c2=S)cc1 [Compound 3a, 5-(3-Chlorophenyl)-4-(4-fluorophenyl)-2,4-dihydro-3H-1,2,4-triazole-3-thione]
acute adverse effects at the screening dose ([1]; mice): acute adverse effects | anticonvulsant activity (in words) ([1]; mice): most potent activity | ED50 [1, 7]: 35.2 ± 5.3 mg/kg | ED50 [1, 8]: 93.6 ± 9.4 mg/kg | ED50 [1, 9]: > 200 mg/kg | ED50 [1, 10]: > 200 mg/kg | time to peak of the anticonvulsant action ([1]; MES, mice): 15 min | anticonvulsant activity at decreased doses ([1]; doses lowered to those not inducing neurotoxic effects, MES, mice): retained its anticonvulsant activity | anticonvulsant activity relative to valproate ([1]; from ED50 values, MES): approximately five and a half times higher than that of valproate | PI (TD50/ED50) [1, 11]: 3.9 | PI (TD50/ED50) [1, 12]: 1.6 | onset of action ([1]; MES, mice): quick onset of action

Fc1ccc(-n2c(-c3ccc(Cl)cc3)n[nH]c2=S)c(F)c1 [Compound 13a, 5-(4-Chlorophenyl)-4-(2,4-difluorophenyl)-2,4-dihydro-3H-1,2,4-triazole-3-thione]
melting point: 196 to 198 °C | p/t, number of animals protected against MES-induced seizures / number tested ([1]; pretreatment time 15 min, mice): 8/8 | p/t, number of animals protected against MES-induced seizures / number tested ([1]; pretreatment time 30 min, mice): 8/8 | p/t, number of animals protected against MES-induced seizures / number tested ([1]; pretreatment time 60 min, mice): 8/8 | p/t, number of animals protected against MES-induced seizures / number tested [1, 2]: 8/8 | responders at 300 mg/kg [1, 3]: 100% | responders at 300 mg/kg [1, 4]: 100% | responders at 300 mg/kg [1, 5]: 100% | responders at 300 mg/kg [1, 6]: 100% | ED50 [1, 7]: 104 ± 15.8 mg/kg | ED50 [1, 8]: 100 ± 30.1 mg/kg | ED50 [1, 9]: 109 ± 11.9 mg/kg | ED50 [1, 10]: 80 ± 10.9 mg/kg | ED50 ([1]; pretreatment times 15, 30, 60, 120 min, read-out: ED50 (MES), range over pretreatment times): 80 to 109 mg/kg | time to peak of the anticonvulsant action ([1]; MES, mice): 120 min | PI (TD50/ED50) [1, 11]: 1.9 | PI (TD50/ED50) [1, 12]: 1.9 | PI (TD50/ED50) [1, 13]: 1.6 | PI (TD50/ED50) [1, 14]: 2.7 | onset of action ([1]; MES, mice): quick onset of action

Cc1cccc(-n2c(-c3cccc(Cl)c3)n[nH]c2=S)c1 [Compound 9a, 5-(3-Chlorophenyl)-4-(3-methylphenyl)-2,4-dihydro-3H-1,2,4-triazole-3-thione]
melting point: 200 to 201 °C | p/t, number of animals protected against MES-induced seizures / number tested ([1]; pretreatment time 15 min, mice): 0/8 | p/t, number of animals protected against MES-induced seizures / number tested ([1]; pretreatment time 30 min, mice): 0/8 | p/t, number of animals protected against MES-induced seizures / number tested ([1]; pretreatment time 60 min, mice): 0/8 | p/t, number of animals protected against MES-induced seizures / number tested [1, 2]: 1/8 | responders at 300 mg/kg [1, 3]: 0% | responders at 300 mg/kg [1, 4]: 0% | responders at 300 mg/kg [1, 5]: 0% | responders at 300 mg/kg [1, 6]: 12.5%

Fc1ccc(N2CCN(Cn3nc(-c4ccc(Cl)cc4)n(-c4ccc(Br)cc4)c3=S)CC2)cc1 [Compound 30a, 4-(4-Bromophenyl)-5-(4-chlorophenyl)-2-{[4-(4-fluorophenyl)piperazin-1-yl]methyl}-2,4-dihydro-3H-1,2,4-triazole-3-thione]
melting point: 156 to 158 °C | p/t, number of animals protected against MES-induced seizures / number tested ([1]; pretreatment time 15 min, mice): 0/8 | p/t, number of animals protected against MES-induced seizures / number tested ([1]; pretreatment time 30 min, mice): 0/8 | p/t, number of animals protected against MES-induced seizures / number tested ([1]; pretreatment time 60 min, mice): 0/8 | p/t, number of animals protected against MES-induced seizures / number tested [1, 2]: 0/8 | responders at 300 mg/kg [1, 3]: 0% | responders at 300 mg/kg [1, 4]: 0% | responders at 300 mg/kg [1, 5]: 0% | responders at 300 mg/kg [1, 6]: 0%

S=c1[nH]nc(-c2cccc(Cl)c2)n1-c1ccc(I)cc1 [Compound 7a, 5-(3-Chlorophenyl)-4-(4-iodophenyl)-2,4-dihydro-3H-1,2,4-triazole-3-thione]
p/t, number of animals protected against MES-induced seizures / number tested ([1]; pretreatment time 15 min, mice): 0/8 | p/t, number of animals protected against MES-induced seizures / number tested ([1]; pretreatment time 30 min, mice): 0/8 | p/t, number of animals protected against MES-induced seizures / number tested ([1]; pretreatment time 60 min, mice): 0/8 | p/t, number of animals protected against MES-induced seizures / number tested [1, 2]: 0/8 | anticonvulsant activity (in words) ([1]; mice): inactive | responders at 300 mg/kg [1, 3]: 0% | responders at 300 mg/kg [1, 4]: 0% | responders at 300 mg/kg [1, 5]: 0% | responders at 300 mg/kg [1, 6]: 0%

S=c1[nH]nc(-c2ccc(Cl)cc2)n1-c1ccc(Cl)cc1Cl [Compound 14a, 5-(4-Chlorophenyl)-4-(2,4-dichlorophenyl)-2,4-dihydro-3H-1,2,4-triazole-3-thione]
melting point: 238 to 240 °C | acute adverse effects at the screening dose ([1]; mice): acute adverse effects

S=c1n(CN2CCOCC2)nc(-c2cccc(Cl)c2)n1-c1ccc(Br)cc1 [Compound 19a, 4-(4-Bromophenyl)-5-(3-chlorophenyl)-2-(morpholin-4-ylmethyl)-2,4-dihydro-3H-1,2,4-triazole-3-thione]
p/t, number of animals protected against MES-induced seizures / number tested ([1]; pretreatment time 15 min, mice): 0/8 | p/t, number of animals protected against MES-induced seizures / number tested ([1]; pretreatment time 30 min, mice): 0/8 | p/t, number of animals protected against MES-induced seizures / number tested ([1]; pretreatment time 60 min, mice): 0/8 | p/t, number of animals protected against MES-induced seizures / number tested [1, 2]: 0/8 | responders at 300 mg/kg [1, 3]: 0% | responders at 300 mg/kg [1, 4]: 0% | responders at 300 mg/kg [1, 5]: 0% | responders at 300 mg/kg [1, 6]: 0%

Reference: paper PMC6271529, “Studies on the Anticonvulsant Activity and Influence on GABA-ergic Neurotransmission of 1,2,4-Triazole-3-thione-Based Compounds” (Molecules, 2014)
